Measured values published in ChEMBL document CHEMBL5291721, “A preclinical secondary pharmacology resource illuminates target-adverse drug reaction associations of marketed drugs” (Nat Commun, 2023).

How the values were obtained:
[1] = target: Beta-3 adrenergic receptor (Homo sapiens, UniProt P13945)
[2] = target: T1, D(4) dopamine receptor (Homo sapiens, UniProt P21917)
T1 sequence (P21917 whole entry): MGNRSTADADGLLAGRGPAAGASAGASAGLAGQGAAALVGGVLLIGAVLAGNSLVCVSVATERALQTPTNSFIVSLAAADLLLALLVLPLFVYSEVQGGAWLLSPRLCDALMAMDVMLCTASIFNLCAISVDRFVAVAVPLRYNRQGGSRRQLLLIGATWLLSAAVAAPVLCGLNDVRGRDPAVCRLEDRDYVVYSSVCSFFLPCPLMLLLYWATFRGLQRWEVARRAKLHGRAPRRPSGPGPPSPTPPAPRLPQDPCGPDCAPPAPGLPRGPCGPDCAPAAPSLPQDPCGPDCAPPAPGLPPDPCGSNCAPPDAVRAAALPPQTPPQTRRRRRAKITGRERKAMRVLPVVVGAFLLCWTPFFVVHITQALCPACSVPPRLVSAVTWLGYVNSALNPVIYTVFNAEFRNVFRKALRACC

[3] = target: T2, Gastric inhibitory polypeptide receptor (Homo sapiens, UniProt P48546)
T2 sequence (P48546 whole entry): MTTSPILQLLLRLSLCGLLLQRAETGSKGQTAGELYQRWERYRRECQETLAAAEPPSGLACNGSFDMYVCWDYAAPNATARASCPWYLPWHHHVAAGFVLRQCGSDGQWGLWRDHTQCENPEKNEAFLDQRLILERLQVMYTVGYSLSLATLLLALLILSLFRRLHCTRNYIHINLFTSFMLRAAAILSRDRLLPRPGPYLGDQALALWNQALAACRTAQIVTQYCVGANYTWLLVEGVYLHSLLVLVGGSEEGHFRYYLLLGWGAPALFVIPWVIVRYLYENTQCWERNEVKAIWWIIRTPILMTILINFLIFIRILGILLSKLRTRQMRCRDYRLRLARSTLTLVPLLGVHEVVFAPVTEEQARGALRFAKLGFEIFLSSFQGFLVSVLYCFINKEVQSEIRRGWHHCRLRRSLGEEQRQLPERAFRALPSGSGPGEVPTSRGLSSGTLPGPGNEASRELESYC

[4] = target: Histamine H1 receptor (Homo sapiens, UniProt P35367); assay type: functional, cell-based
Sequence of Histamine H1 receptor (P35367 whole entry): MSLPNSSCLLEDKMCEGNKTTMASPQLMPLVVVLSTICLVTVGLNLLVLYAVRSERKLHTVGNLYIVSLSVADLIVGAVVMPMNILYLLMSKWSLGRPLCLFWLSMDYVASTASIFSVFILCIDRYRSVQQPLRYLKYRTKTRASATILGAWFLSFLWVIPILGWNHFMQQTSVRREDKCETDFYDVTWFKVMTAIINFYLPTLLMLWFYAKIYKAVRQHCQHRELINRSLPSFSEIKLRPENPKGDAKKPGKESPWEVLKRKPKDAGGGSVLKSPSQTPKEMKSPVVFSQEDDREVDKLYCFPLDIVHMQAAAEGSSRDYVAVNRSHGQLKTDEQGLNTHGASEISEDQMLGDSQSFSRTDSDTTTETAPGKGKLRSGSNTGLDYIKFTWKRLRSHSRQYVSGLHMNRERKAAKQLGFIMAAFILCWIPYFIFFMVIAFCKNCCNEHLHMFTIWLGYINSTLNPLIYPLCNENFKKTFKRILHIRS

[5] = target: T3, Alpha-1A adrenergic receptor (Homo sapiens, UniProt P35348)
T3 sequence (P35348 whole entry): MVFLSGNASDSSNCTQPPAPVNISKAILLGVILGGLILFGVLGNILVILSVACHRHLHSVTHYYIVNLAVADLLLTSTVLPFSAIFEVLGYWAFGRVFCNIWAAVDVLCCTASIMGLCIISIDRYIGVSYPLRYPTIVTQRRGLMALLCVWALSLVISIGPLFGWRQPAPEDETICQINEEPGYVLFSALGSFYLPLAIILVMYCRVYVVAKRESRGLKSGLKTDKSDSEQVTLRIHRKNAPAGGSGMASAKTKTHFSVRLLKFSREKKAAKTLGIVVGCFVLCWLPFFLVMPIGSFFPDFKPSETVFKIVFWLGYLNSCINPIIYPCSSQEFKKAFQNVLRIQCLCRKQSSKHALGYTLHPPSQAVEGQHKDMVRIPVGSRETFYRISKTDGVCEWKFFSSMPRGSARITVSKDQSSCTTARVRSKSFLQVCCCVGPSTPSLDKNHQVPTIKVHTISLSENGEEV

[6] = target: 5-hydroxytryptamine receptor 2A (Homo sapiens, UniProt P28223)
Sequence of 5-hydroxytryptamine receptor 2A (P28223 whole entry): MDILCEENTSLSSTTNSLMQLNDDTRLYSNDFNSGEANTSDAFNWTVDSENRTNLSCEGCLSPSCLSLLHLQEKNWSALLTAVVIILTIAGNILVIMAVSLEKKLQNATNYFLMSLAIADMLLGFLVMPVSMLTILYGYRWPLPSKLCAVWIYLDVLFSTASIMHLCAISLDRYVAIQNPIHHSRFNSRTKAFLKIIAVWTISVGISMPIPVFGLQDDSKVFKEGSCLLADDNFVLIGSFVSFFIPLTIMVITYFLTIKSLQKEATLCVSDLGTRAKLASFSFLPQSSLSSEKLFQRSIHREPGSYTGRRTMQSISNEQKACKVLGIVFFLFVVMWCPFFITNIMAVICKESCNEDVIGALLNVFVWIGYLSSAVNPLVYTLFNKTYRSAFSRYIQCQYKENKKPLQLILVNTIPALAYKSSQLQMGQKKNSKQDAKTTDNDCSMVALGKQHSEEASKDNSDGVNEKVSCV

[7] = target: Sodium channel protein type 5 subunit alpha (Homo sapiens, UniProt Q14524); assay type: functional, cell-based
Sequence of Sodium channel protein type 5 subunit alpha (Q14524 whole entry): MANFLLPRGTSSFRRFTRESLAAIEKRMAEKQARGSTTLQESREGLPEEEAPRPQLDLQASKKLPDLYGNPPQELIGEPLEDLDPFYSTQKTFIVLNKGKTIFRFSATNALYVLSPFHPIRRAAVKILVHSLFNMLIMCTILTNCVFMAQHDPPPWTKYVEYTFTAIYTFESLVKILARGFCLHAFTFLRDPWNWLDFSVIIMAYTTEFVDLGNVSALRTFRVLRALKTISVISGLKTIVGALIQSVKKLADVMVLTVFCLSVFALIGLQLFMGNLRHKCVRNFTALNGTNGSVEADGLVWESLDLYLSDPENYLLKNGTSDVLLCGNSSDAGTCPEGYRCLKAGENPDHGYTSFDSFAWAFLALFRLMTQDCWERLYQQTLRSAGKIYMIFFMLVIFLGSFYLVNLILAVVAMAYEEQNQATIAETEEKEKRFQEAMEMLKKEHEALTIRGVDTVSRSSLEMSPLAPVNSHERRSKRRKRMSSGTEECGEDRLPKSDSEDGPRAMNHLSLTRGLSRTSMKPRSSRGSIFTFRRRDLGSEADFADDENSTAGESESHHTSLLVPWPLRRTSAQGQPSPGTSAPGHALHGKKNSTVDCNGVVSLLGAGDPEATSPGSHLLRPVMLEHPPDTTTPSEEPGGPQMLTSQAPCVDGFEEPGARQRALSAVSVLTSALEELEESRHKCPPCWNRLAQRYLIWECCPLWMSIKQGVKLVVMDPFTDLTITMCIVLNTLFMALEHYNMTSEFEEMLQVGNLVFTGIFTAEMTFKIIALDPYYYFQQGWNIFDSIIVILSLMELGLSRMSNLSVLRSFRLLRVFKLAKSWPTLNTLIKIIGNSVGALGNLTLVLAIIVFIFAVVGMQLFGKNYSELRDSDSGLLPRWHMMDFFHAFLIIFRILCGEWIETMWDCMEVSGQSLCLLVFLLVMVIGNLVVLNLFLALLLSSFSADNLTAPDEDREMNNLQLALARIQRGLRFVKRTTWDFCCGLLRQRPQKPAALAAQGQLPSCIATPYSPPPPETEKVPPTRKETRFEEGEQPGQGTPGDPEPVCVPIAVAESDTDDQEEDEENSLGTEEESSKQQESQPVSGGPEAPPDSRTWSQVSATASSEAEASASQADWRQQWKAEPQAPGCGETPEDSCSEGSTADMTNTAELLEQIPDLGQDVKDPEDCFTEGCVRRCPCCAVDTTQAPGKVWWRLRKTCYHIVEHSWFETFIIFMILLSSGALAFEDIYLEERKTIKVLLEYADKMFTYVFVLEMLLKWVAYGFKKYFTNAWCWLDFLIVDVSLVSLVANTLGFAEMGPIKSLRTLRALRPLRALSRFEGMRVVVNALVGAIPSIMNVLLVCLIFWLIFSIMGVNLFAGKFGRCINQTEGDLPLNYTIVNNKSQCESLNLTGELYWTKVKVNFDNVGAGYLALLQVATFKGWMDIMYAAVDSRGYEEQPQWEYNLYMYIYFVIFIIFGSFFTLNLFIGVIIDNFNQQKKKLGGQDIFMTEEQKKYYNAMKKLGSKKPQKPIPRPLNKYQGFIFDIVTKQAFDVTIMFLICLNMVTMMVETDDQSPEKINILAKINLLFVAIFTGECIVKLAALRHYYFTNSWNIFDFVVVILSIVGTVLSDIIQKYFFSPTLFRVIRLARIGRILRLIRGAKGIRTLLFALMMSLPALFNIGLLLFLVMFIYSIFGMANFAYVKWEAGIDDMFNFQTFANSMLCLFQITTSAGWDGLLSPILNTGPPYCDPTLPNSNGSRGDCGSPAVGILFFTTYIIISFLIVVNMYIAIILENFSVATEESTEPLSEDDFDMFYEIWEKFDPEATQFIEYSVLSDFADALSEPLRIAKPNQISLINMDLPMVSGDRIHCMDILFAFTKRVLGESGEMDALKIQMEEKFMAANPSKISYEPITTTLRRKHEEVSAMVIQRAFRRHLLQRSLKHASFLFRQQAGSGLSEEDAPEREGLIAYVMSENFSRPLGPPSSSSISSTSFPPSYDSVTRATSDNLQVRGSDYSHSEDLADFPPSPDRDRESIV
Also: assay procedure not described here.

Sequence of Beta-3 adrenergic receptor (P13945 whole entry): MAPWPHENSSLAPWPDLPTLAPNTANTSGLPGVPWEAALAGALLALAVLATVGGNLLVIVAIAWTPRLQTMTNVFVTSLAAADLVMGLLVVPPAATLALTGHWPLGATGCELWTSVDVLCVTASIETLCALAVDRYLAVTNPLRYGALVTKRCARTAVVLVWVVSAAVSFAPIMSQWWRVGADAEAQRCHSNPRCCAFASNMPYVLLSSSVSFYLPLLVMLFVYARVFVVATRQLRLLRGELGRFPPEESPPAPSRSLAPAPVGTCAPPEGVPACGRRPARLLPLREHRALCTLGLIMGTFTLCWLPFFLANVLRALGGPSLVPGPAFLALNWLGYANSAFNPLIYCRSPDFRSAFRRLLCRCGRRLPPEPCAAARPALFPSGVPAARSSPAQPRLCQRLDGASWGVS

`Cc1ccc(-c2ncc(Cl)cc2-c2ccc(S(C)(=O)=O)cc2)cn1` [ETORICOXIB] gave an AC50 [1] of over 30 µM, an AC50 [2] of over 10 µM and an AC50 [3] of over 30 µM. The AC50 [4] was over 30 µM, the AC50 [5] was over 10 µM and the AC50 [6] was over 10 µM.

`CN1C(=O)CN=C(c2ccccc2F)c2cc([N+](=O)[O-])ccc21` [FLUNITRAZEPAM] showed an AC50 [1] of over 30 µM, an AC50 [2] of over 10 µM and an AC50 [3] of over 30 µM. It also gave an AC50 [5] of over 10 µM and an AC50 [6] of over 10 µM.

`COc1ccc2c3c1O[C@H]1C(=O)CC[C@H]4[C@@H](C2)N(C)CC[C@]314` [HYDROCODONE] was tested, and the AC50 [1] was over 30 µM, the AC50 [2] was over 10 µM and the AC50 [3] was over 30 µM. The AC50 [7] was over 50 µM, the AC50 [5] was over 10 µM and the AC50 [6] was over 10 µM.
